SMILES strings stand for the structures. Where only a bound is given, the exact number is not on record here.

Experimental findings from patent publication US7531553B2, “Heterocyclic compounds and methods of use” (Amgen Inc., priority 2003, dated 2009) are described below.

In this assay the test system is Human Umbilical Vein Endothelial cells. The assay is described as follows: HUVEC proliferation assay (VEGF-stimulated). The format is cell-based. To be noted: VEGF 50 ng/mL final, 72 h incubation, CyQuant dye, read-out: inhibited VEGF-stimulated HUVEC proliferation at a level (IC50). The procedure: Human Umbilical Vein Endothelial cells are purchased from Clonetics, Inc., as cryopreserved cells harvested from a pool of donors. These cells, at passage 1, are thawed and expanded in EBM-2 complete medium, until passage 2 or 3. The cells are trypsinized, washed in DMEM+10% FBS+antibiotics, and spun at 1000 rpm for 10 min. Prior to centrifugation of the cells, a small amount is collected for a cell count. After centrifugation, the medium is discarded, and the cells are resuspended in the appropriate volume of DMEM+10% FBS+antibiotics to achieve a concentration of 3×10^5 cells/mL. Another cell count is performed to confirm the cell concentration. The cells are diluted to 3×10^4 cells/mL in DMEM+10% FBS+antibiotics, and 100 μL of cells are added to a 96-well plate. The cells are incubated at 37° C. for 22 h.
Prior to the completion of the incubation period, compound dilutions are prepared. Five-point, five-fold serial dilutions are prepared in DMSO, at concentrations 400-fold greater than the final concentrations desired. 2.5 μL of each compound dilution are diluted further in a total of 1 mL DMEM+10% FBS+antibiotics (400× dilution). Medium containing 0.25% DMSO is also prepared for the 0 μM compound sample. After 22-h, the medium is removed from the cells, and 100 μL of each compound dilution is added. The cells are incubated at 37° C. for 2-3 h.
During the compound pre-incubation period, the growth factors are diluted to the appropriate concentrations. Solutions of DMEM+10% FBS+antibiotics, containing either VEGF or bFGF at the following concentrations: 50, 10, 2, 0.4, 0.08, and 0 ng/mL are prepared. For the compound-treated cells, solutions of VEGF at 550 ng/mL or bFGF at 220 ng/mL for 50 ng/mL or 20 ng/mL final concentrations, respectively, are prepared since 10 μL of each will be added to the cells (110 μL final volume). At the appropriate time after adding the compounds, the growth factors are added. VEGF is added to one set of plates, while bFGF is added to another set of plates. For the growth factor control curves, the media on wells B4-G6 of plates 1 and 2 are replaced with media containing VEGF or bFGF at the varying concentrations (50-0 ng/mL). The cells are incubated at 37° C. for an additional 72 h.
At the completion of the 72 h incubation period, the medium is removed, and the cells are washed twice with PBS. After the second wash with PBS, the plates are tapped gently to remove excess PBS, and the cells are placed at −70° C. for at least 30 min. […] Raw data are collected and analyzed using a 4-parameter fit equation in XLFit. IC50 values are then determined.
With `COc1cc2nccc(Oc3ccc4[nH]c(Nc5ccc(Cl)c(CN6CCN(C)CC6)c5)nc4c3)c2cc1OC` [Example 236, [4-Chloro-3-(4-methylpiperazin-1-ylmethyl)-phenyl]-[5-(6,7-dimethoxyquinolin-4-yloxy)-1H-benzimidazol-2-yl]-amine], the IC50 was less than 100 nM.

`CNC(=O)c1cc(Oc2cc(Cl)c3oc(Nc4ccc(Cl)c(CN5CCN(C)CC5)c4)nc3c2)ccn1` [Example 245, 4-{7-Chloro-2-[4-chloro-3-(4-methyl-piperazin-1-ylmethyl)-phenylamino]-benzoxazol-5-yloxy}-pyridine-2-carboxylic acid methyl amide]: the IC50 is less than 100 nM. For `COc1cc2ncnc(Oc3ccc4[nH]c(Nc5ccc(Cl)cc5)nc4c3)c2cc1OC` [Example 237, (4-Chlorophenyl)-[5-(6,7-dimethoxyquinazolin-4-yloxy)-1H-benzimidazol-2-yl]-amine] the value was less than 100 nM.

For `CC(C)N1CCC[C@H]1COc1cc(Nc2nc3cc(Oc4ccnc5[nH]ccc45)ccc3o2)ccc1Cl` [Example 247, S-[4-Chloro-3-(1-isopropylpyrrolidin-2-ylmethoxy)-phenyl]-[5-(1H-pyrrolo[2,3-b]pyridin-4-yloxy)-benzoxazol-2-yl]-amine], the IC50 is less than 100 nM. For `CNC(=O)c1cc(Oc2ccc3c(c2)nc(Nc2ccc(Cl)c(CN4CCN(C)CC4)c2)n3C)ccn1` [Example 17, 4-{2-[4-Chloro-3-(4-methyl-piperazin-1-ylmethyl)-phenylamino]-1-methyl-1H-benzimidazol-5-yloxy}-pyridine-2-carboxylic acid methylamide] the value was less than 100 nM; for `COc1cc2nccc(Oc3ccc4oc(Nc5ccc(Cl)c(CN6CCN(C)CC6)c5)nc4c3)c2cc1OC` [Example 45, 5-((6,7-bis(Methoxy)-4-quinolinyl)oxy)-N-(4-chloro-3-((4-methyl-1-piperazinyl)methyl)phenyl)-1,3-benzoxazol-2-amine], less than 100 nM. The figure for `CNC(=O)c1cc(Oc2ccc3oc(Nc4ccc(Cl)c(OCC5CCN(C(C)C)CC5)c4)nc3c2)ccn1` [Example 244, 4-{2-[4-Chloro-3-(1-isopropylpiperidin-4-ylmethoxy)-phenylamino]-benzoxazol-5-yloxy}-pyridine-2-carboxylic acid methyl amide] is less than 100 nM.

On to `CNC(=O)c1cc(Oc2ccc3[nH]c(Nc4ccc(C(F)(F)F)c(OCCN(C)C)c4)nc3c2)ccn1` [Example 13a], for which the IC50 was less than 100 nM. The figure for `CNC(=O)c1cc(Oc2ccc3oc(Nc4ccc(Cl)c(OCC5CCNCC5)c4)nc3c2)ccn1` [Example 243, 4-{2-[4-Chloro-3-(piperidin-4-ylmethoxy)-phenylamino]-benzoxazol-5-yloxy}-pyridine-2-carboxylic acid methylamide] is less than 100 nM; for `CNc1cc(Oc2ccc3oc(Nc4ccc(Cl)c(OC[C@@H]5CCCN5C)c4)nc3c2)ccn1` [Example 239, [4-Chloro-3-((2S)-1-methylpyrrolidin-2-ylmethoxy)-phenyl]-[5-(2-methylamino-pyridin-4-yloxy)-benzoxazol-2-yl]-amine] it is less than 100 nM. As for `CNC(=O)c1cc(Oc2ccc3oc(Nc4ccc(Cl)c(CN5CCN(C)CC5)c4)nc3c2)ccn1` [Example 32, 4-{2-[4-Chloro-3-(4-methyl-piperazin-1-ylmethyl)-phenylamino]-benzoxazol-5-yloxy}-pyridine-2-carboxylic acid methylamide], the IC50 is less than 100 nM.

As for `CNC(=O)c1cc(Oc2cc(F)c3oc(Nc4ccc(Cl)c(OC[C@@H]5CCCN5C)c4)nc3c2)ccn1` [Example 49, 4-((2-((4-Chloro-3-(((2S)-1-methyl-2-pyrrolidinyl)methoxy)phenyl)amino)-7-fluoro-1,3-benzoxazol-5-yl)oxy)-N-methyl-2-pyridinecarboxamide], the IC50 was less than 100 nM.
